Experimental data from patent US8106055B2, “Substituted amide compounds” (Gruenenthal GmbH, priority 2007, dated 2012).

Experiments:
[1] = biological target: T1, bradykinin 1 receptor (B1R) of the rat (Rattus norvegicus, UniProt P97583); experiment: Functional investigation on the rat bradykinin 1 receptor (B1R), Ca2+ FLIPR assay in CHO K1 rB1R cells; type: cell-based; conditions: test substance 10 μM, Ca2+ FLIPR, CHO K1 rB1R cells; for B1R Ant. r [10 μM] % Inhibition: B1R antagonism rat; for inhibition at 10 µM: CHO-K1, B1R antagonism rat, read-out: B1R Ant. r [10 μM] % Inhibition
T1 construct: expressed in transfected cells; host or cells: CHO K1 cells
T1 sequence (P97583 1-337): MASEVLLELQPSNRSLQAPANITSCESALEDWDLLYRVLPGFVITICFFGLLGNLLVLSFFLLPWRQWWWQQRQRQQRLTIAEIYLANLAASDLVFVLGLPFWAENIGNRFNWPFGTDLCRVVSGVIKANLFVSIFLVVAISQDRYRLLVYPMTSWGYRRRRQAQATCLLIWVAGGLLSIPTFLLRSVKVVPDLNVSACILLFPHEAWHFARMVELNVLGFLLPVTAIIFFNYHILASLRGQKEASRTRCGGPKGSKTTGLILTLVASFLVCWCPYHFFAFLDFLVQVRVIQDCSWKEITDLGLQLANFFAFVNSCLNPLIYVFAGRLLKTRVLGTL
Method in brief: (§1)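 Stably transfected CHO K1 cells loaded with Fluo-4; FLIPR Ca2+ fluorescence peak (ex 488/em 540 nm). Compound added first (agonism vs Lys-Des-Arg9-bradykinin ≥50 nM human, Des-Arg9-bradykinin 10 μM rat), then after 10-20 min agonist at EC80; antagonism as % inhibition, IC50 from concentration series, n=2-3, N≥2.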

[2] = biological target: T2, human bradykinin 1 receptor (B1R) (Homo sapiens, UniProt P46663); experiment: Functional investigation on the human bradykinin 1 receptor (B1R), Ca2+ FLIPR assay in CHO K1 hB1R cells; type: cell-based; conditions: test substance 10 μM, Ca2+ FLIPR, CHO K1 hB1R cells; for B1R Ant. h [10 μM] % Inhibition: B1R antagonism human
T2 construct: expressed in transfected cells; host or cells: CHO K1 cells
T2 sequence (P46663 1-353): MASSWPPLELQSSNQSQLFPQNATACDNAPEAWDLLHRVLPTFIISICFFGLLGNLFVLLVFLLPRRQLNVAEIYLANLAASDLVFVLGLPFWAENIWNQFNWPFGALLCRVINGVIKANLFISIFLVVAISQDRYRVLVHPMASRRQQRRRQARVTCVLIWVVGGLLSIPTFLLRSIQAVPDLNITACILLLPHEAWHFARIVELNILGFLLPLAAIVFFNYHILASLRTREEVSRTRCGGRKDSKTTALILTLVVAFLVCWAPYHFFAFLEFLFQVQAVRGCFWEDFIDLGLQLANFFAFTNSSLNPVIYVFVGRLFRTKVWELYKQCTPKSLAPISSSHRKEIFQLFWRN
Method in brief: as §1

Row | Compound | B1R Ant. r [10 μM] % Inhibition [1] | B1R Ant. h [10 μM] % Inhibition [2] | inhibition at 10 µM [1] | inhibition at 10 µM ([2]; CHO-K1, B1R antagonism human, read-out: B1R Ant. h [10 μM] % Inhibition)
1 | CN(C)C(c1cccs1)C1CCC(CNC(=O)COC2CCN(S(=O)(=O)c3ccccc3)CC2)CC1 (centres unmarked) [Example 276] | 14% | −12% |  | 
2 | COc1ccc(S(=O)(=O)N2Cc3ccccc3CC2COCC(=O)NC2CCC(C(c3ccc(F)cc3)N(C)C)CC2)cc1 (centres unmarked) [Example 234] | 20% | 50% |  | 
3 | COc1cc(C)c(S(=O)(=O)N2CCC(OCC(=O)NCC3CCC(C(c4cccc(F)c4)N(C)C)CC3)C2)c(C)c1C (centres unmarked) [Example 252] | 4% | 59% |  | 
4 | CN(C)C(c1ccccc1)C1CCC(NC(=O)COCC2CCCN2S(=O)(=O)c2c(Cl)cc(Cl)cc2Cl)CC1 (centres unmarked) [Example 613, N-[4-(Dimethylaminophenylmethyl)-cyclohexyl]-2-[1-(2,4,6-trichlorobenzenesulfonyl)-pyrrolidin-2-ylmethoxy]-acetamide] | 34% | 66% |  | 
5 | COc1cc(C)c(S(=O)(=O)N2CCN(CCOCC(=O)NC3CCC(C(c4ccc(F)cc4)N(C)C)CC3)CC2)c(C)c1C (centres unmarked) [Example 222] | 10% | 54% |  | 
6 | Cc1ccc(S(=O)(=O)N(C)CCOCC(=O)NC2CCC(C(c3cccc(F)c3)N(C)C)CC2)cc1 (centres unmarked) [Example 226] | 24% | −4% |  | 
7 | COc1cc(C)c(S(=O)(=O)N(CCOCC(=O)NCC2CCC(C(c3ccccc3)N(C)C)CC2)Cc2ccccc2)c(C)c1C (centres unmarked) [Example 201] | 7% | 76% |  | 
8 | COc1ccc(S(=O)(=O)N(C)CCOCC(=O)NCC2CCC(C(c3ccccc3)N(C)C)CC2)cc1 (centres unmarked) [Example 242] | 22% | 39% |  | 
9 | COc1cc(C)c(S(=O)(=O)N2CCC(OCC(=O)NCC3CCC(C(c4cccc(F)c4)N(C)C)CC3)C2)c(C)c1 (centres unmarked) [Example 265] | 97% | 93% |  | 
10 | COc1ccc(S(=O)(=O)N2CCCC2COCC(=O)NC2CCC(C(c3cccc(F)c3)N(C)C)CC2)cc1 (centres unmarked) [Example 268] | 25% | 7% |  | 
11 | COc1ccc(S(=O)(=O)N2CCCCC2CCOCC(=O)NCC2CCC(C(c3cccc(F)c3)N(C)C)CC2)cc1 (centres unmarked) [Example 203] | 55% | 42% |  | 
12 | CN(C)C(c1ccc(F)cc1)C1CCC(CNC(=O)COCCN(C)S(=O)(=O)c2ccc(Cl)cc2Cl)CC1 (centres unmarked) [Example 249] | 55% | 104% |  | 
13 | CN(C)C(c1cccc(F)c1)C1CCC(CCNC(=O)COC2CCN(S(=O)(=O)c3ccc(Cl)cc3)C2)CC1 (centres unmarked) [Example 247] | 8% | 4% |  | 
14 | Cc1ccc(S(=O)(=O)N(C)CCOCC(=O)NCC2CCC(C(c3ccc(Cl)cc3)N(C)C)CC2)cc1 (centres unmarked) [Example 273] | 37% | 25% |  | 
15 | CN(C)C(c1ccccc1)C1CCC(NC(=O)COC2CCN(S(=O)(=O)c3c(Cl)cc(Cl)cc3Cl)C2)CC1 (centres unmarked) [Example 609, N-[4-(dimethylaminophenylmethyl)-cyclohexyl]-2-[1-(2,4,6-trichlorobenzenesulfonyl)-pyrrolidin-3-yloxy]-acetamide] |  |  | 32% | 64%
16 | CN(C)C(c1cccc(F)c1)C1CCC(CCNC(=O)COCCN(C)S(=O)(=O)c2ccc(F)cc2)CC1 (centres unmarked) [Example 218] | 28% | 7% |  | 
17 | Cc1ccc(S(=O)(=O)N2CCC(OCC(=O)NCCC3CCC(C(c4cccc(F)c4)N(C)C)CC3)C2)cc1 (centres unmarked) [Example 216] | 12% | 20% |  | 

Row | Compound | B1R Ant. r [10 μM] % Inhibition [1] | B1R Ant. h [10 μM] % Inhibition [2] | inhibition at 10 µM [1] | inhibition at 10 µM ([2]; CHO-K1, B1R antagonism human, read-out: B1R Ant. h [10 μM] % Inhibition)
18 | COc1cc(C)c(S(=O)(=O)N(CCOCC(=O)NCCC2CCC(C(c3cccs3)N(C)C)CC2)Cc2ccccc2)c(C)c1C (centres unmarked) [Example 254] | −1% | 27% |  | 
19 | COc1ccc(S(=O)(=O)N2CCCCC2CCOCC(=O)NCCC2CCC(C(c3cccc(F)c3)N(C)C)CC2)cc1 (centres unmarked) [Example 213] | 49% | 78% |  | 
20 | CN(C)C(c1ccc(F)cc1)C1CCC(CNC(=O)COCC2CCCN2S(=O)(=O)c2ccc(Cl)c(Cl)c2)CC1 (centres unmarked) [Example 267] | −13% | 68% |  | 
21 | CN(C)C(c1cccc(F)c1)C1CCC(CNC(=O)COC2CCN(S(=O)(=O)c3ccc(Cl)cc3)C2)CC1 (centres unmarked) [Example 258] | 12% | −12% |  | 
22 | CN(C)C(c1ccc(Cl)cc1)C1CCC(CNC(=O)COCCN(C)S(=O)(=O)c2c(Cl)cccc2Cl)CC1 (centres unmarked) [Example 207] | 52% | 104% |  | 
23 | CN(C)C(c1cccc(F)c1)C1CCC(CNC(=O)COC2CCN(S(=O)(=O)c3ccc(F)cc3)C2)CC1 (centres unmarked) [Example 275] | 17% | 15% |  | 
24 | COc1ccc(S(=O)(=O)N2CCCCC2COCC(=O)NC2CCC(C(c3cccc(F)c3)N(C)C)CC2)cc1 (centres unmarked) [Example 255] | 47% | 37% |  | 
25 | COc1cc(C)c(S(=O)(=O)N2CCC(OCC(=O)NCCC3CCC(C(c4cccc(F)c4)N(C)C)CC3)CC2)c(C)c1C (centres unmarked) [Example 232] | 5% | 17% |  | 
26 | CN(CCOCC(=O)NC1CCC(C(c2ccccc2)N2CCCC2)CC1)S(=O)(=O)c1c(Cl)cc(Cl)cc1Cl (centres unmarked) [Example 606, 2-{2-[methyl-(2,4,6-trichlorobenzenesulfonyl)-amino]-ethoxy}-N-[4-(phenylpyrrolidin-1-yl-methyl)-cyclohexyl]-acetamide] |  | 77% | 37% | 
27 | CN(C)C(c1ccccc1)C1CCC(CNC(=O)COCCN(C)S(=O)(=O)c2c(Cl)cc(Cl)cc2Cl)CC1 (centres unmarked) [Example 614, N-[4-(dimethylaminophenylmethyl)-cyclohexylmethyl]-2-{2-[(2,4,6-trichlorobenzenesulfonyl)-methylamino]-ethoxy}-acetamide] | 29% | 102% |  | 
28 | CN(C)C(c1cccc(F)c1)C1CCC(NC(=O)COCCN(C)S(=O)(=O)c2ccc(Cl)cc2Cl)CC1 (centres unmarked) [Example 217] | 47% | 85% |  | 
29 | CCN(CCOCC(=O)NCCC1CCC(C(c2cccc(F)c2)N(C)C)CC1)S(=O)(=O)c1c(C)cc(OC)c(C)c1C (centres unmarked) [Example 209] | 60% | 64% |  | 
30 | CN(C)C(c1cccc(F)c1)C1CCC(CCNC(=O)COCCN(C)S(=O)(=O)c2ccc(OC(F)(F)F)cc2)CC1 (centres unmarked) [Example 215] | 22% | 1% |  | 
31 | Cc1ccc(S(=O)(=O)N(C)CCOCC(=O)NCC2CCC(C(c3cccc(F)c3)N(C)C)CC2)cc1 (centres unmarked) [Example 227] | 12% | 6% |  | 
32 | CN(C)C(c1cccc(F)c1)C1CCC(NC(=O)COCC2CCCN(S(=O)(=O)c3ccccc3)C2)CC1 (centres unmarked) [Example 266] | 24% | 4% |  | 
33 | CN(C)C(c1ccc(F)cc1)C1CCC(CCNC(=O)COC2CCCCC2N(C)S(=O)(=O)c2ccc(Cl)c(Cl)c2)CC1 (centres unmarked) [Example 244] | −5% | 21% |  | 
34 | COc1cc(C)c(S(=O)(=O)N2CCN(CCOCC(=O)NCC3CCC(C(c4cccc(F)c4)N(C)C)CC3)CC2)c(C)c1C (centres unmarked) [Example 223] | −5% | 52% |  | 
